Source: ChEMBL document CHEMBL5523746, “Discovery of Novel Peptide Antagonists Targeting GPR55 for Liver Inflammation and Fibrosis” (2024)
Bridge positions count the residues as written; N and C are the ends. Peptide text beside a SMILES is read from it.

How the values were obtained:
LX-2 [1] = test: Anti-fibrotic activity in human LX2 cells assessed as reduction in […] expression by measuring relative inhibition rate measured after 24 hrs incubation by Western blot analysis relative to control; assay type: functional; design: concentration or dose not given beside the values
LX-2 [2] = test: Anti-fibrotic activity in human LX2 cells assessed as reduction in COL1alpha expression by measuring relative inhibition rate measured after 24 hrs incubation by Western blot analysis relative to control; assay type: functional; design: concentration or dose not given beside the values

SMILES | Activity (LX-2 [1]) [%] | Activity (LX-2 [2]) [%]
CC(C)C[C@@H]1NC(=O)[C@H]([C@@H](C)O)NC(=O)[C@@H]2CCCN2C(=O)[C@H]([C@@H](C)O)NC(=O)[C@H](CC(N)=O)NC(=O)[C@H](CCCCN)NC(=O)[C@H](CCCCN)NC(=O)[C@@H](N)CSSC[C@@H](C(=O)O)NC1=O (H-CKKNTPTLC-OH; disulfide 1-9) | 91.6 | 85.7
C[C@@H]1NC(=O)[C@H]([C@@H](C)O)NC(=O)[C@@H]2CCCN2C(=O)[C@H](CO)NC(=O)[C@H](CC(N)=O)NC(=O)[C@H](CCCCN)NC(=O)[C@H](CCCCN)NC(=O)[C@@H](N)CSSC[C@@H](C(=O)O)NC1=O (H-CKKNSPTAC-OH; disulfide 1-9) |  | 74.1
CC(C)C[C@@H]1NC(=O)[C@H]([C@@H](C)O)NC(=O)[C@@H]2CCCN2C(=O)[C@H](CO)NC(=O)[C@H](C)NC(=O)[C@H](CCCCN)NC(=O)[C@H](CCCCN)NC(=O)[C@@H](N)CSSC[C@@H](C(=O)O)NC1=O (H-CKKASPTLC-OH; disulfide 1-9) | 87.7 | 132.9
C[C@@H](O)[C@@H]1NC(=O)[C@@H]2CCCN2C(=O)[C@H](CO)NC(=O)[C@H](CC(N)=O)NC(=O)[C@H](CCCCN)NC(=O)[C@H](CCCCN)NC(=O)[C@@H](N)CSSC[C@@H](C(=O)O)NC(=O)[C@H](CCC(N)=O)NC1=O (H-CKKNSPTQC-OH; disulfide 1-9) | 82.3 | 74.6
CC(C)C[C@@H]1NC(=O)[C@H](CO)NC(=O)[C@@H]2CCCN2C(=O)[C@H](CO)NC(=O)[C@H](CC(N)=O)NC(=O)[C@H](CCCCN)NC(=O)[C@H](CCCCN)NC(=O)[C@@H](N)CSSC[C@@H](C(=O)O)NC1=O (H-CKKNSPSLC-OH; disulfide 1-9) | 93.8 | 69.4
CC(C)C[C@@H]1NC(=O)[C@H]([C@@H](C)O)NC(=O)[C@H](C)NC(=O)[C@H](CO)NC(=O)[C@H](CC(N)=O)NC(=O)[C@H](CCCCN)NC(=O)[C@H](CCCCN)NC(=O)[C@@H](N)CSSC[C@@H](C(=O)O)NC1=O (H-CKKNSATLC-OH; disulfide 1-9) | 91.8 | 140.1
C[C@@H](O)[C@@H]1NC(=O)[C@@H]2CCCN2C(=O)[C@H](CO)NC(=O)[C@H](CC(N)=O)NC(=O)[C@H](CCCCN)NC(=O)[C@H](CCCCN)NC(=O)[C@@H](N)CSSC[C@@H](C(=O)O)NC(=O)[C@H](Cc2c[nH]cn2)NC1=O (H-CKKNSPTHC-OH; disulfide 1-9) | 71.5 | 62.6
CC(C)C[C@@H]1NC(=O)[C@H]([C@@H](C)O)NC(=O)[C@@H]2CCCN2C(=O)[C@H](C)NC(=O)[C@H](CC(N)=O)NC(=O)[C@H](CCCCN)NC(=O)[C@H](CCCCN)NC(=O)[C@@H](N)CSSC[C@@H](C(=O)O)NC1=O (H-CKKNAPTLC-OH; disulfide 1-9) | 74.5 | 99.4
C[C@@H](O)[C@@H]1NC(=O)[C@H]([C@@H](C)O)NC(=O)[C@@H]2CCCN2C(=O)[C@H](CO)NC(=O)[C@H](CC(N)=O)NC(=O)[C@H](CCCCN)NC(=O)[C@H](CCCCN)NC(=O)[C@@H](N)CSSC[C@@H](C(=O)O)NC1=O (H-CKKNSPTTC-OH; disulfide 1-9) | 84.9 | 66.1
CC(C)C[C@@H]1NC(=O)[C@H](CCC(=O)O)NC(=O)[C@@H]2CCCN2C(=O)[C@H](CO)NC(=O)[C@H](CC(N)=O)NC(=O)[C@H](CCCCN)NC(=O)[C@H](CCCCN)NC(=O)[C@@H](N)CSSC[C@@H](C(=O)O)NC1=O (H-CKKNSPELC-OH; disulfide 1-9) | 82.9 | 59.2
CC(C)C[C@@H]1NC(=O)[C@H]([C@@H](C)O)NC(=O)[C@@H]2CCCN2C(=O)[C@H](CO)NC(=O)[C@H](CC(N)=O)NC(=O)[C@H](C)NC(=O)[C@H](CCCCN)NC(=O)[C@@H](N)CSSC[C@@H](C(=O)O)NC1=O (H-CKANSPTLC-OH; disulfide 1-9) | 88.9 | 139.1
CC(C)C[C@@H]1NC(=O)[C@H](CO)NC(=O)[C@H](CC(N)=O)NC(=O)[C@H](CCCCN)NC(=O)[C@H](CCCCN)NC(=O)[C@@H](N)CSSC[C@@H](C(=O)O)NC(=O)[C@H](CC(C)C)NC(=O)[C@H]([C@@H](C)O)NC1=O (H-CKKNSLTLC-OH; disulfide 1-9) | 68.9 | 66.1
CC(C)C[C@@H]1NC(=O)[C@H](CCCNC(=N)N)NC(=O)[C@@H]2CCCN2C(=O)[C@H](CO)NC(=O)[C@H](CC(N)=O)NC(=O)[C@H](CCCCN)NC(=O)[C@H](CCCCN)NC(=O)[C@@H](N)CSSC[C@@H](C(=O)O)NC1=O (H-CKKNSPRLC-OH; disulfide 1-9) | 92.6 | 76.7
CC(C)C[C@@H]1NC(=O)[C@H]([C@@H](C)O)NC(=O)[C@@H]2CCCN2C(=O)[C@H](CO)NC(=O)[C@H](CC(=O)O)NC(=O)[C@H](CCCCN)NC(=O)[C@H](CCCCN)NC(=O)[C@@H](N)CSSC[C@@H](C(=O)O)NC1=O (H-CKKDSPTLC-OH; disulfide 1-9) | 82.4 | 64.7
CC(C)C[C@@H]1NC(=O)[C@H]([C@@H](C)O)NC(=O)[C@@H]2CCCN2C(=O)[C@H](CO)NC(=O)[C@H](CC(N)=O)NC(=O)[C@H](CCCCN)NC(=O)[C@H](CCCCN)NC(=O)[C@@H](N)CSSC[C@@H](C(=O)O)NC1=O (H-CKKNSPTLC-OH; disulfide 1-9) | 66.4 | 57.5
CC(C)C[C@@H]1NC(=O)[C@H]([C@@H](C)O)NC(=O)[C@@H]2CCCN2C(=O)[C@H](CO)NC(=O)[C@H](CC(N)=O)NC(=O)[C@H](CCCCN)NC(=O)[C@H](C)NC(=O)[C@@H](N)CSSC[C@@H](C(=O)O)NC1=O (H-CAKNSPTLC-OH; disulfide 1-9) | 76.4 | 90.3
CC(C)C[C@@H]1NC(=O)[C@H](C)NC(=O)[C@@H]2CCCN2C(=O)[C@H](CO)NC(=O)[C@H](CC(N)=O)NC(=O)[C@H](CCCCN)NC(=O)[C@H](CCCCN)NC(=O)[C@@H](N)CSSC[C@@H](C(=O)O)NC1=O (H-CKKNSPALC-OH; disulfide 1-9) | 61.2 | 79.7
